ChEMBL document CHEMBL4024705 (Bioorg Med Chem Lett, 2017)

Key:
Liver [1] = assay: Stability of the compound in rat liver microsomes assessed as compound remaining; format: ADME, microsome
Liver [2] = assay: Stability of the compound in human liver microsomes assessed as compound remaining; format: ADME, microsome
Liver [3] = assay: Stability of the compound in mouse liver microsomes assessed as compound remaining; format: ADME, microsome
[4] = Permeability of the compound by PAMPA; format: physicochemical; settings: read-out: permeability

| Stability (Liver [1]) [%] | Stability (Liver [2]) [%] | Stability (Liver [3]) [%] | Papp [4] [×10⁻⁶ cm/s] | Compound |
| --- | --- | --- | --- | --- |
| 4 | 53 | 1 | – | CC[C@H]1COC(C)(C)C(=O)N1c1cc(-c2cc(Cl)c3c(N)ncnn23)ccc1C#N |
| 34 to 37 | 83 to 87 | 0 to 28 | – | [2H]C([2H])([2H])C1([2H])N(c2cc(-c3cc(Cl)c4c(N)ncnn34)ccc2C#N)C(=O)C(C)(C)OC1([2H])[2H] (centres undefined) |
| 25 | 92 | 28 | – | C[C@@H]1COC(C)(C)C(=O)N1c1cc(-c2cc(Cl)c3c(N)ncnn23)ccc1C#N |
| 75 | 91 | 74 | – | [2H]C1([2H])OC(C)(C)C(=O)N(c2cc(-c3cc(C(F)(F)F)c4c(N)ncnn34)ccc2C#N)C1([2H])[2H] |
| 29 | 85 | 24 | – | C[C@H]1CN(c2cc(-c3cc(C(F)(F)F)c4c(N)ncnn34)ccc2C#N)C(=O)C(C)(C)O1 |
| 1 | 23 | 1 | – | C[C@H]1COC(C)(C)C(=O)N1c1cc(-c2cc(C(F)(F)F)c3c(N)ncnn23)ccc1C#N |
| 32 to 44 | 77 to 91 | 0 to 18 | – | [2H]C([2H])([2H])C1([2H])N(c2cc(-c3cc(C(F)(F)F)c4c(N)ncnn34)ccc2C#N)C(=O)C(C)(C)OC1([2H])[2H] (centres undefined) |
| 2 | 50 | 4 | 65.9 | C[C@H]1OC(C)(C)C(=O)N(c2cc(-c3cc(C(F)(F)F)c4c(N)ncnn34)ccc2C#N)[C@H]1C |
| 76 | 94 | 58 | – | [2H]C1([2H])OC(C)(C)C(=O)N(c2cc(-c3cc(Cl)c4c(N)ncnn34)ccc2C#N)C1([2H])[2H] |
| 5 | 61 | 43 | – | C[C@@H]1CN(c2cc(-c3cc(Cl)c4c(N)ncnn34)ccc2C#N)C(=O)C(C)(C)O1 |
| 0 | 18 | 0 | – | C[C@H]1CN(c2cc(-c3cc(Cl)c4c(N)ncnn34)ccc2C#N)C(=O)C(C)(C)O1 |
